In US4904819A, “Bicyclic sulfonamide derivatives and process therefor” (Shionogi & Co., Ltd., priority 1987, dated 1990):

test system: washed platelet; experiment: Inhibition of platelet aggregation caused by collagen (washed platelet, aggregometer); type: cell-based, male rat (Sprague-Dowley); conditions: 0.05 h; platelet aggregating agent: collagen, 4 μg/ml final; rat washed platelet, 37° C.; measured 3 minutes after adding agent; read-out: Inhibition of Platelet Aggregation [50% Inhibitory Concentration]
Protocol: From the abdominal artery of a male rat (Sprague-Dowley, 8 weeks old) was collected 10 ml of blood with a syringe containing 1.5 ml of ACD (85 mM sodium citrate, 70 mM citric acid, 110 mM glucose) and 20 μg of prostaglandin E1. The blood is placed in a plastic test tube, mixed by moderate turning and centrifuged for 10 minutes at 160×g to give platelet rich plasma (PRP). To the prepared PRP was added apyrase (25 μg/ml) and the mixture was layered on 40% bovine serum albumin. The resulting mixture is centrifuged at 1200×g for 25 minutes. The platelet pellet suspended in a small amount of a buffer (137 mM NaCl, 2.7 mM KCl, 1.0 mM MgCl2, 3.8 mM NaH2 PO4, 3.8 mM Hepes, 5.6 mM glucose, 0.035% bovine serum albumin, pH 7.35) was applied on 10 ml of Sepharose 2B column and eluted with the buffer to prepare a washed platelet.
The platelet aggregation reaction was measured by an aggregometer (NKK HEMA TRACER 1 MODEL PAT-6A·6M, Niko bioscience). In a measuring cuvette was placed 245 μl of the washed platelet of which platelet number was adjusted to 5×10^5 /μl and set in the aggregometer. The washed platelet was stirred (1000 rpm) at 37° C. and 3.8 μl of 0.1M of CaCl2 was added thereto. One minutes after, 0.5 μl of a solution of test compound (dimethylsulfoxide solution) was added and 2 minutes after, 1 μl of Collagen reagent Horm® [HORMON-CHEMIE Munchen GMBH, final concentrate 4 μg/ml) as a platelet aggregating agent was added. The change in light transmittance caused by platelet aggregation was recorded against time elasped.
50% aggregation inhibitory rate was calculated from the aggregation inhibitory rate (which was measured 3 minutes after adding a platelet aggregating agent). The light transmittance for the washed platelet and the buffer were setted at 0% and 100%, respectively.

Row | IC50 | Compound
1 | 5.3 nM | CC1(C)[C@H]2C[C@H](C/C=C\CCCC(=O)O)[C@@H](NS(=O)(=O)c3ccc(Cl)cc3)[C@@H]1C2 [Compound 7b-d]
2 | 1.4 nM | CC1(C)[C@H]2C[C@H](C/C=C/CCCC(=O)O)[C@@H](NS(=O)(=O)c3ccccc3)[C@@H]1C2 [Compound 10b-a]
3 | 37 nM | CC1(C)[C@H]2C[C@@H](C/C=C\CCCC(=O)O)[C@@H](NS(=O)(=O)c3ccccc3)[C@@H]1C2 [Compound 7d-a]
4 | 0.7 nM | CC1(C)[C@H]2C[C@H](C/C=C\CCCC(=O)O)[C@@H](NS(=O)(=O)c3ccccc3)[C@@H]1C2 [Compound 7b-a]
5 | 1.3 nM | CC1(C)[C@H]2C[C@H](C/C=C\CCCC(=O)O)[C@@H](NS(=O)(=O)c3cccc(Cl)c3)[C@@H]1C2 [Compound 7b-f]
6 | 11 nM | CC1(C)[C@H]2C[C@H](C/C=C\CCCC(=O)O)[C@H](NS(=O)(=O)c3ccccc3)[C@@H]1C2 [Compound 7a-a]
7 | 115 nM | Cc1ccc(S(=O)(=O)N[C@H]2[C@@H](C/C=C\CCCC(=O)O)C[C@H]3C[C@@H]2C3(C)C)cc1 [Compound 7a-b]
8 | 6.4 nM | CC1(C)[C@H]2C[C@H](C/C=C\CCCC(=O)O)[C@@H](NS(=O)(=O)c3ccccc3Cl)[C@@H]1C2 [Compound 7b-e]
9 | 240 nM | CC1(C)[C@H]2C[C@H](C/C=C\CCCC(=O)O)[C@@H](NS(=O)(=O)Cc3ccccc3)[C@@H]1C2 [Compound 7b-o]

The next lines start with the molecule.

Row | Compound | IC50
10 | CC1(C)[C@H]2C[C@H](C/C=C\CCCC(=O)O)[C@@H](NS(C)(=O)=O)[C@@H]1C2 [Compound 7b-n] | 480 nM
11 | CCc1ccc(S(=O)(=O)N[C@@H]2[C@@H](C/C=C\CCCC(=O)O)C[C@H]3C[C@@H]2C3(C)C)cc1 [Compound 7b-g] | 9.9 nM
12 | Cc1ccc(S(=O)(=O)N[C@@H]2[C@@H](C/C=C\CCCC(=O)O)C[C@H]3C[C@@H]2C3(C)C)cc1 [Compound 7b-b] | 1.7 nM
13 | CC1(C)[C@H]2C[C@H](C/C=C\CCCC(=O)O)[C@@H](NS(=O)(=O)c3ccc4ccccc4c3)[C@@H]1C2 [Compound 7b-m] | 4.3 nM
14 | CC1(C)[C@H]2C[C@H](C/C=C\CCCC(=O)O)[C@@H](NS(=O)(=O)CCc3ccccc3)[C@@H]1C2 [Compound 7b-p] | 13 nM
15 | COc1ccc(S(=O)(=O)N[C@@H]2[C@@H](C/C=C\CCCC(=O)O)C[C@H]3C[C@@H]2C3(C)C)cc1 [Compound 7b-i] | 3.4 nM
16 | CC1(C)[C@H]2C[C@H](C/C=C\CCCC(=O)O)[C@@H](NS(=O)(=O)c3ccc([N+](=O)[O-])cc3)[C@@H]1C2 [Compound 7b-h] | 26 nM
17 | CC1(C)[C@H]2C[C@H](C/C=C\CCCC(=O)O)[C@@H](NS(=O)(=O)c3ccc(O)cc3)[C@@H]1C2 [Compound 7b-k] | 1.8 nM
18 | CC1(C)[C@H]2C[C@H](C/C=C\CCCC(=O)O)[C@@H](NS(=O)(=O)c3ccc(-c4ccccc4)cc3)[C@@H]1C2 [Compound 7b-l] | 9.9 nM
19 | CC1(C)[C@H]2C[C@H](C/C=C\CCCC(=O)O)[C@@H](NS(=O)(=O)CCCc3ccccc3)[C@@H]1C2 [Compound 7b-q] | 12 nM
20 | CC1(C)C2CC(NCC(O)Cc3ccccc3)C(C/C=C\CCCC(=O)O)C1C2 (stereo not drawn) [ONO-11120, reference compound] | 115 nM

test system: platelet; smooth muscle of bronchi, and of coronary, cerebral and pulmonary arteries; experiment: not given; conditions: "it is said that"; prior art; cited from earlier work

Row | Compound | concentration at which the strong action occurs
21 | CCCCC[C@H](O)/C=C/[C@H]1O[C@H]2C[C@H](O2)[C@@H]1C/C=C\CCCC(=O)O [thromboxane A2] | 10^-10 to 10^-11 M
